Consider 57 molecules from paper doi:10.1101/2022.11.24.517821v4 (biorxiv, 2022).

Where two headings read alike, the source gives them in different places.

Assay [1] deals with T1, TAS2R14 (Homo sapiens, UniProt Q9NYV8).
T1 sequence (Q9NYV8 1-317): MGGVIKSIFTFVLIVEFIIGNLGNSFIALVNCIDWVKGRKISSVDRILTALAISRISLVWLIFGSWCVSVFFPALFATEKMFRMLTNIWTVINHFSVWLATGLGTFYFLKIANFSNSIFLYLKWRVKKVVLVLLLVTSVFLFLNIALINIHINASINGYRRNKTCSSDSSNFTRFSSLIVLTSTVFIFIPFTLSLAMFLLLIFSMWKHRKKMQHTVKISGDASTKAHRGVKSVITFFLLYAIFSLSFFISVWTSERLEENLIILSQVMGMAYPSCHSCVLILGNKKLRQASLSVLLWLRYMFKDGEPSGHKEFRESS
The assay is described as follows: cell-based. The arrangement: species or system HEK293T.

Assay [2] has as its target T1, TAS2R14. The assay is described as follows: cell-based. The arrangement: species or system HEK293T. Conditions: HEK-293T, read-out: Emax[%flu acid].
In assay [3] the target is T1, TAS2R14. The experiment in a line: IP-One HTRF IP1 accumulation, HEK293T with Galpha-qi5. The class given is cell-based.
In assay [4] the target is T1, TAS2R14. The description is as above. The class given is cell-based. The conditions noted are these: antagonist mode, […] min pre-incubation, against […] flufenamic acid, […] °C.

`Oc1cc(-c2ccccc2Nc2cccc(C(F)(F)F)c2)on1` [lw306] gave an EC50 at TAS2R14 [1] of 3100 ± 1800 nM. In addition, the Emax on TAS2R14 [2] stood at 38 ± 4%.
For `O=C(c1cc(O)cc(C(F)(F)F)c1)N1CC(c2ccccc2)C1CO` (centres unmarked) [LF22], on TAS2R14 [3], the IC50 came out at 7200 ± 3000 nM.
On TAS2R14 [1], `NC(=O)c1cc(Nc2ccccc2C(=O)O)cc(C(F)(F)F)c1` [lw154] displayed a half-maximal effective concentration (EC50) of 7200 ± 1000 nM. The Emax at TAS2R14 [2] came to 127 ± 13%.
The like results for `O=C(O)c1ccccc1Nc1cc(OCc2ccccc2)cc(C(F)(F)F)c1` [lw105] were, in that order, 1700 ± 350 nM and 66 ± 14%.
The corresponding values for `NC(=O)c1ccccc1Nc1cccc(C(F)(F)F)c1` [lw208] are 11000 ± 750 nM and 34 ± 4%.
The corresponding values for `FS(F)(F)(F)(F)c1cccc(Nc2ccccc2-c2nnn[nH]2)c1` [lw071] are 230 ± 90 nM and 48 ± 3%.
In the case of `CC#Cc1ccc(Nc2ccccc2C(=O)O)cc1C(F)(F)F` [lw310], at TAS2R14 [1], the EC50 is 380 ± 52 nM. Further, the Emax at TAS2R14 [2] stood at 89 ± 3%.
The like results for `Cc1cc(Nc2ccccc2-c2nnn[nH]2)cc(C(F)(F)F)c1` [lw201] were, in that order, 590 ± 250 nM and 81 ± 7%.
The like results for `COc1ccc(Nc2ccccc2C(=O)O)cc1OCc1cccc(F)c1` [lwbk20] were, in that order, 1400 ± 500 nM and 89 ± 4%.
On TAS2R14 [3], `Cc1[nH]nc(C(=O)Nc2ccc(C3CCC(F)(F)CC3)cc2)c1C(=O)O` [LF14] registered a half-inhibitory concentration (IC50) of 22000 ± 16000 nM.
At TAS2R14 [1], `COc1cc(Nc2ccc(Cl)cc2-c2nnn[nH]2)cc(C(F)(F)F)c1` [lw128] yielded an EC50 of 580 ± 180 nM. The maximal response (Emax) at TAS2R14 [2] came to 26 ± 4%.
With `O=C(O)c1ccccc1Nc1cccc(OCc2cccc(F)c2)c1` [lwmr06], at TAS2R14 [1], the EC50 was determined as 420 ± 50 nM. In addition, the Emax at TAS2R14 [2] came to 71 ± 4%.
The like results for `FC(F)(F)c1cc(Nc2ccccc2-c2nnn[nH]2)c(Cl)c(C(F)(F)F)c1` [lwjk06] were, in that order, 170 ± 20 nM and 97 ± 8%.
The like results for `COC(=O)c1cc(Nc2ccccc2-c2nnn[nH]2)cc(C(F)(F)F)c1` [lw169] were, in that order, 640 ± 140 nM and 97 ± 4%.
The corresponding values for `FC(F)(F)c1cc(Nc2ccccc2-c2nnn[nH]2)ccc1N1CCOCC1` [lw114] are 190 ± 20 nM and 50 ± 7%.
Consider `O=C(O)c1cc(I)ccc1Nc1cccc(C(F)(F)F)c1` [LW118], for which the half-maximal inhibitory concentration (IC50) result against TAS2R14 [4] is reported as “A derivative of flufenamic acid (LW118)”.
`FC(F)(F)c1cccc(Nc2ccccc2-c2cnoc2)c1` [lwph005] showed an EC50 at TAS2R14 [1] of 12000 ± 8900 nM. In addition, the Emax on TAS2R14 [2] came to 50 ± 1%.
The corresponding values for `O=C(O)c1ccccc1Nc1cccc(OCc2ccc(Cl)cc2)c1` [lwmr04] are 1100 ± 180 nM and 64 ± 2%.
Molecule `Cc1ccc(Nc2ccccc2C(=O)O)cc1OCc1ccc(Cl)cc1` [lwlb17] registered an EC50 at TAS2R14 [1] of 1300 ± 180 nM. Further, the Emax on TAS2R14 [2] stood at 70 ± 10%.
The like results for `COc1cccc(COc2cc(Nc3ccccc3C(=O)O)ccc2OC)c1` [lwbk21] were, in that order, 2100 ± 1100 nM and 88 ± 10%.
The corresponding values for `Cc1ccc(Nc2ccccc2C(=O)O)cc1OCc1cccc(F)c1` [lwlb19] are 1900 ± 940 nM and 70 ± 6%.
The corresponding values for `O=C(O)c1ccccc1Nc1cc(C#CC2CC2)cc(C(F)(F)F)c1` [lw271] are 460 ± 79 nM and 57 ± 7%.
`COc1ccc(Nc2ccccc2C(=O)O)cc1OCc1ccc(Cl)cc1` [lwbk19]: the concentration giving a half-maximal response (EC50) at TAS2R14 [1] turned out to be 1200 ± 300 nM. On TAS2R14 [2], the Emax is 70 ± 11%.
The corresponding values for `COc1cc(Nc2ccccc2C(=O)O)cc(C(F)(F)F)c1` [lw077] are 200 ± 60 nM and 87 ± 5%.
The corresponding values for `NS(=O)(=O)c1ccccc1Nc1cccc(OCc2ccccc2)c1` [lw19a] are 65000 ± 25000 nM and 100%.
With `Cc1cn(-c2cc(Nc3ccccc3C(=O)O)cc(C(F)(F)F)c2)cn1` [lw122], at TAS2R14 [1], the EC50 stood at 3700 ± 1200 nM. For the same molecule, the Emax on TAS2R14 [2] came to 51 ± 11%.
As for `O=C(Nc1ccccc1C(=O)O)c1ccc(OC(F)(F)F)cc1` [LF1], on TAS2R14 [3], the midpoint of inhibition, the IC50, lay at 6800 ± 3200 nM.
Molecule `Cc1ccc(C(F)(F)F)cc1Nc1ccccc1-c1nnn[nH]1` [lw113] displayed a concentration giving a half-maximal response (EC50) at TAS2R14 [1] of 310 ± 92 nM. The Emax on TAS2R14 [2] is 90 ± 5%.
The corresponding values for `FC(F)(F)c1cc(Nc2ccccc2-c2nnn[nH]2)cc(OC2CC2)c1` [lw190] are 430 ± 75 nM and 68 ± 4%.
The corresponding values for `CCCCC#Cc1ccc(Nc2ccccc2C(=O)O)cc1C(F)(F)F` [lw308] are 4400 ± 1600 nM and 87 ± 7%.
On to `Cc1c(Nc2ccccc2-c2nnn[nH]2)cccc1C(F)(F)F` [lw086], for which it took 290 ± 50 nM to reach a half-maximal effect on TAS2R14 [1] (EC50). For the same molecule, the maximal effect (Emax) on TAS2R14 [2] was 70 ± 4%.
The corresponding values for `O=C1COc2c(cc(C(F)(F)F)cc2Nc2ccccc2C(=O)O)N1` [lw104] are 1800 ± 180 nM and 74 ± 8%.
The like results for `COC(=O)c1ccccc1Nc1cccc(C(F)(F)F)c1` [lw50] were, in that order, 5300 ± 3200 nM and 47 ± 23%.
`FC(F)(F)c1cc(-c2ccccc2)nc(Nc2ccccc2-c2nnn[nH]2)n1` [lw341] showed an EC50 at TAS2R14 [1] of 1100 ± 320 nM. In addition, the Emax on TAS2R14 [2] was found to be 118 ± 16%.
The like results for `O=C(O)c1ccccc1Nc1cc([N+](=O)O)cc(C(F)(F)F)c1` [lw119] were, in that order, 190 ± 50 nM and 67 ± 8%.
The like results for `NC(=O)c1cc(Nc2ccccc2-c2nnn[nH]2)cc(C(F)(F)F)c1` [lw183] were, in that order, 6000 ± 1300 nM and 86 ± 8%.
The like results for `CCCCCNC(=O)c1ccc(Nc2ccccc2C(=O)O)cc1C(F)(F)F` [lw317] were, in that order, 30000 ± 19000 nM and 66 ± 17%.
At TAS2R14 [1], `O=C(O)c1ccccc1Nc1cccc(OC(F)(F)F)c1` [lw057] came in with a half-maximal effective concentration (EC50) of 250 ± 60 nM. Further, the Emax at TAS2R14 [2] was found to be 101 ± 5%.
The like results for `FC(F)(F)Oc1cccc(Nc2ccccc2-c2nnn[nH]2)c1` [lw070] were, in that order, 190 ± 70 nM and 72 ± 13%.
The like results for `COC(=O)c1cccc(C(=O)O)c1Nc1cccc(C(F)(F)F)c1` [lw253] were, in that order, 480 ± 110 nM and 42 ± 4%.
The like results for `CCCCc1cc2cccc(C(=O)O)c2n1-c1cccc(C(F)(F)F)c1` [lw273] were, in that order, 8300 ± 2400 nM and 62 ± 6%.
Molecule `COc1cccc(COc2cccc(Nc3ccccc3C(=O)O)c2)c1` [lwmr05] returned a concentration giving a half-maximal response (EC50) on TAS2R14 [1] of 740 ± 120 nM. The Emax on TAS2R14 [2] was 70 ± 6%.
The like results for `O=[N+](O)c1cc(Nc2ccccc2-c2nnn[nH]2)cc(C(F)(F)F)c1` [lw130] were, in that order, 730 ± 150 nM and 80 ± 8%.
The like results for `O=C(O)c1ccccc1Nc1cc(C(F)(F)F)cc(C(F)(F)F)c1Cl` [lwjk05] were, in that order, 150 ± 20 nM and 84 ± 1%.
The corresponding values for `Clc1cccc(Nc2ccccc2-c2nnn[nH]2)c1` [lw072] are 170 ± 70 nM and 67 ± 6%.
In the case of `O=Cc1ccc(Cl)cc1Nc1ccccc1C(=O)O` [lw231], the response on TAS2R14 [1] was half-maximal at 3300 ± 460 nM (EC50). The maximal response (Emax) on TAS2R14 [2] came out at 97 ± 7%.
The corresponding values for `COc1cc(Nc2ccccc2-c2nnn[nH]2)cc(C(F)(F)F)c1` [lw085] are 80 ± 20 nM and 98 ± 3%.
The like results for `O=C(O)c1ccccc1Nc1ccc(N2CCOCC2)c(C(F)(F)F)c1` [lw101] were, in that order, 2000 ± 490 nM and 44 ± 5%.
The like results for `COC(=O)c1cc(Nc2ccccc2C(=O)O)cc(C(F)(F)F)c1` [lw153] were, in that order, 780 ± 250 nM and 73 ± 5%.
As for `COc1cccc(COc2cc(Nc3ccccc3C(=O)O)ccc2C)c1` [lwlb18], the concentration for a half-maximal effect (EC50) at TAS2R14 [1] was 1500 ± 500 nM. Moreover, the maximal effect (Emax) at TAS2R14 [2] came out at 54 ± 14%.
Regarding `O=C(O)c1ccccc1Nc1ccc(Cl)c(C(F)(F)F)c1` [lw076], the concentration for a half-maximal effect (EC50) on TAS2R14 [1] was determined as 200 ± 50 nM. Also, at TAS2R14 [2], the Emax came to 67 ± 9%.
The like results for `O=C(O)c1ccccc1Nc1cc(N2CCOCC2)cc(C(F)(F)F)c1` [lw167] were, in that order, 700 ± 400 nM and 41 ± 18%.
The like results for `FC(F)(F)c1cccc(Nc2ccccc2-c2cnn[nH]2)c1` [lwtp009] were, in that order, 12000 ± 1400 nM and 48 ± 1%.
The corresponding values for `FC(F)(F)c1cc(Nc2ccccc2-c2nnn[nH]2)ccc1Cl` [lw084] are 190 ± 20 nM and 59 ± 1%.
Molecule `FC(F)Oc1cccc(Nc2ccccc2-c2nnn[nH]2)c1` [lw083] displayed an EC50 at TAS2R14 [1] of 200 ± 20 nM. On TAS2R14 [2], the Emax worked out at 77 ± 5%.
The corresponding values for `O=C(O)c1cc([N+](=O)[O-])ccc1Nc1cccc(C(F)(F)F)c1` [lw205] are 270 ± 75 nM and 82 ± 4%.
The like results for `O=C(O)c1ccccc1Nc1cc(OC2CC2)cc(C(F)(F)F)c1` [lw103] were, in that order, 310 ± 50 nM and 64 ± 3%.
